Reference: paper PMC8587101, “Design and Synthesis of Novel Betulin Derivatives Containing Thio-/Semicarbazone Moieties as Apoptotic Inducers through Mitochindria-Related Pathways” (Molecules, 2021)
Several values for one entry are separate records, joined by “and”; a condition that tells them apart may be missing. Identical values can stand only once. Like-named read-outs stand apart in the source and are kept apart here.

Columns and labels:
[1] = system: human breast carcinoma cells (MCF-7); assay: MTT cytotoxicity assay, MCF-7; format: cell-based; settings: read-out: IC50 (μM) MCF-7
[2] = system: human colorectal cells (HCT-116); assay: MTT cytotoxicity assay, HCT-116; format: cell-based; settings: read-out: IC50 (μM) HCT-116
[3] = system: human lung carcinoma cells (A549); assay: MTT cytotoxicity assay, A549; format: cell-based; settings: read-out: IC50 (μM) A549
[4] = system: normal human gastric epithelial cells (GES-1); assay: MTT cytotoxicity assay, GES-1 normal cells; format: cell-based; settings: read-out: IC50 (μM) GES-1
[5] = Homo sapiens, MCF7, 48 h, MTT, 48 h, means ± SD of three experiments
[6] = HCT-116, MTT, 48 h, means ± SD of three experiments
[7] = A549, MTT, 48 h, means ± SD of three experiments
[8] = GES1, MTT, 48 h, normal cells, means ± SD of three experiments, “-” not active
[9] = MTT, 48 h, means ± SD of three experiments

Structure (SMILES)	IC50 [1, 5] [µM]	IC50 [2, 6] [µM]	melting point [°C]	IC50 [3, 7] [µM]	IC50 [4, 8] [µM]	IC50 [1, 9]	IC50 ([1]; Homo sapiens, MCF7, 48 h) [µM]	IC50 ([2]; HCT-116, 48 h) [µM]	IC50 ([3]; A549, 48 h) [µM]	IC50 ([4]; GES1, 48 h) [µM]
C=C(C)[C@@H]1CC[C@]2(/C=N/NC(=S)Nc3ccc(C(C)(C)C)cc3)CC[C@]3(C)C(CCC4[C@@]5(C)CC[C@H](O)C(C)(C)C5CC[C@]43C)C12 (stereo partly drawn) [Compound 8e, Lup-20(29)-ene-3β-ol-28-N-(4-tert-butylphenyl)thiosemicarbazide]	46.4 ± 3.42	> 80	216.8 to 218.2	> 80	> 80	–	–	–	–	–
C=C(C)[C@@H]1CC[C@]2(/C=N/NC(=S)Nc3ccc(OC)cc3)CC[C@]3(C)C(CCC4[C@@]5(C)CC[C@H](O)C(C)(C)C5CC[C@]43C)C12 (stereo partly drawn) [Compound 8d, Lup-20(29)-ene-3β-ol-28-N-(4-methoxyphenyl)thiosemicarbazide]	38.4 ± 1.58	> 80	203.7 to 205.2	> 80	> 80	–	–	–	–	–
C=C(C)[C@@H]1CC[C@]2(/C=N/NC(=S)Nc3ccc(F)cc3)CC[C@]3(C)C(CCC4[C@@]5(C)CC[C@H](O)C(C)(C)C5CC[C@]43C)C12 (stereo partly drawn) [Compound 8a, Lup-20(29)-ene-3β-ol-28-N-(4-fluorophenyl)thiosemicarbazide]	< 10	32.5 ± 1.26	209.3 to 211	24.1 ± 1.11	177 ± 5.02	9.8 ± 0.58 µM	–	–	–	–
C=C(C)[C@@H]1CC[C@]2(/C=N/NC(=O)Nc3cccc(C)c3)CC[C@]3(C)C(CCC4[C@@]5(C)CC[C@H](O)C(C)(C)C5CC[C@]43C)C12 (stereo partly drawn) [Compound 7f, Lup-20(29)-ene-3β-ol-8-N-(m-tolyl)semicarbazide]	26.8 ± 1.34	> 80	224.2 to 226	> 80	> 80	–	–	–	–	–
CO[C@@]12[C@H](COC(N)=O)C3=C(C(=O)C(C)=C(N)C3=O)N1C[C@@H]1N[C@@H]12 [Mitomycin, Mitomycin C, reference compound]	15.9 ± 1.03	11.4 ± 0.87	–	12.8 ± 1.08	20.5 ± 1.02	–	–	–	–	–
C=C(C)[C@@H]1CC[C@]2(CO)CC[C@]3(C)[C@H](CC[C@@H]4[C@@]5(C)CC[C@H](O)C(C)(C)[C@@H]5CC[C@]43C)[C@@H]12 [Compound 1, lup-20(29)-ene-3β,28-diol, reference compound]	–	–	–	–	–	–	19.4 ± 0.93	30 ± 1.22	27.1 ± 1.2	108 ± 4.34
C=C(C)[C@@H]1CC[C@]2(/C=N/NC(=S)Nc3ccc(Cl)c(Cl)c3)CC[C@]3(C)C(CCC4[C@@]5(C)CC[C@H](O)C(C)(C)C5CC[C@]43C)C12 (stereo partly drawn) [Compound 8g, Lup-20(29)-ene-3β-ol-28-N-(3,4-dichlorophenyl)thiosemicarbazide]	11.3 ± 1.07	20.2 ± 0.87	219.8 to 221.8	16.9 ± 1.05	174 ± 5.14	–	–	–	–	–
C=C(C)[C@@H]1CC[C@]2(/C=N/NC(=O)Nc3ccc(OC)cc3)CC[C@]3(C)C(CCC4[C@@]5(C)CC[C@H](O)C(C)(C)C5CC[C@]43C)C12 (stereo partly drawn) [Compound 7c, Lup-20(29)-ene-3β-ol-28-N-(4-methoxyphenyl)semicarbazide]	44.4 ± 2.26	> 80	214.2 to 216	> 80	> 80	–	–	–	–	–
C=C(C)[C@@H]1CC[C@]2(/C=N/NC(=O)Nc3cccc(C(F)(F)F)c3)CC[C@]3(C)C(CCC4[C@@]5(C)CC[C@H](O)C(C)(C)C5CC[C@]43C)C12 (stereo partly drawn) [Compound 7e, Lup-20(29)-ene-3β-ol-28-N-(3-(trifluoromethyl)phenyl)semicarbazide]	< 10	26.1 ± 1.17	223.4 to 225.1	43.8 ± 1.44	196 ± 5.82	5.86 µM and 5.96 µM	–	–	–	–
C=C(C)[C@@H]1CC[C@]2(/C=N/NC(=S)Nc3ccc(Cl)cc3)CC[C@]3(C)C(CCC4[C@@]5(C)CC[C@H](O)C(C)(C)C5CC[C@]43C)C12 (stereo partly drawn) [Compound 8b, Lup-20(29)-ene-3β-ol-28-N-(4-chlorophenyl)thiosemicarbazide]	< 10	49.5 ± 1.44	212.5 to 214	18.7 ± 0.98	203 ± 5.74	7.79 ± 0.45 µM	–	–	–	–
C=C(C)[C@@H]1CC[C@]2(/C=N/NC(=O)Nc3ccc(C#N)cc3)CC[C@]3(C)C(CCC4[C@@]5(C)CC[C@H](O)C(C)(C)C5CC[C@]43C)C12 (stereo partly drawn) [Compound 7b, Lup-20(29)-ene-3β-ol-28-N-(4-cyanophenyl)semicarbazide]	< 10	51.1 ± 2.52	236.5 to 238	25.1 ± 1.01	85.4 ± 3.37	7.88 ± 0.54 µM	–	–	–	–
C=C(C)[C@@H]1CC[C@]2(/C=N/NC(=O)Nc3ccc(Cl)cc3)CC[C@]3(C)C(CCC4[C@@]5(C)CC[C@H](O)C(C)(C)C5CC[C@]43C)C12 (stereo partly drawn) [Compound 7a, Lup-20(29)-ene-3β-ol-28-N-(4-chlorophenyl)semicarbazide]	8.57 ± 0.6	34.8 ± 1.25	227.2 to 228.3	18.1 ± 1.03	70.8 ± 2.12	–	–	–	–	–
C=C(C)[C@@H]1CC[C@]2(/C=N/NC(=S)Nc3ccc(C)cc3)CC[C@]3(C)C(CCC4[C@@]5(C)CC[C@H](O)C(C)(C)C5CC[C@]43C)C12 (stereo partly drawn) [Compound 8c, Lup-20(29)-ene-3β-ol-28-N-(p-tolyl)thiosemicarbazide]	28.6 ± 1.06	46.3 ± 1.77	206.4 to 208.2	> 80	> 80	–	–	–	–	–
C=C(C)[C@@H]1CC[C@]2(/C=N/NC(=O)Nc3ccc(Cl)c(C(F)(F)F)c3)CC[C@]3(C)C(CCC4[C@@]5(C)CC[C@H](O)C(C)(C)C5CC[C@]43C)C12 (stereo partly drawn) [Compound 7g, Lup-20(29)-ene-3β-ol-28-N-((3-trifluoromethyl-4-chloro)phenyl)semicarbazide]	< 10	13.5 ± 0.74	211.6 to 213	33.6 ± 1.15	145 ± 3.88	7.06 ± 0.44 µM	–	–	–	–
C=C(C)[C@@H]1CC[C@]2(/C=N/NC(=O)Nc3ccc(C(F)(F)F)cc3)CC[C@]3(C)C(CCC4[C@@]5(C)CC[C@H](O)C(C)(C)C5CC[C@]43C)C12 (stereo partly drawn) [Compound 7d, Lup-20(29)-ene-3β-ol-28-N-(4-(trifluoromethyl)phenyl)semicarbazide]	15.3 ± 1.23	28.6 ± 1.36	221.5 to 222.7	29.4 ± 1.12	168 ± 4.59	–	–	–	–	–
